Data on two compounds can be found in patent publication US6903052B2, “Nematicidal compositions and methods” (Divergence, Inc., priority 2002, dated 2005).

Each structure is given as a SMILES string.

One data set has as its system P. scribneri. Briefly: Nematicidal activity of fatty acid methyl ester emulsions, spectrum (Example 8). Conditions: P. scribneri mixed stage. Format: cell-based, Pratylenchus scribneri. The method, then:
(§1) Briefly, the indicated fatty acid emulsions were added and rapidly mixed by swirling. Nematode viability was scored by visual observation and motility assays 24 hours following addition of emulsions (48 hours for plant parasitic nematodes Meloidogyne and Heterodera species). The fatty acid emulsions tested were methyl esters of nonanoic (pelargonic) acid, ricinelaidic acid, ricinoleic acid, vernolic acid, linoleic acid, and oleic acid. […] Results shown are mean % values obtained from multiple independent experiments
(§2) The Caenorhabiditis elegans were mixed stage populations. Similar effects seen on several other free-living nematode species. The Parastrongyloides trichosuri (parasite of Australian bushtail possum) were dauer-like infective 3rd stage larva. Similar effects are also seen against free-living stages. The Meloidogyne incognita and Meloidogyne javanica (root knot nematode) were 2nd stage juveniles (dauer-like infective stage). The Heterodera glycines (soybean cyst nematode) were 2nd stage juveniles (dauer-like infective stage). Finally, the Pratylenchus scribneri (corn lesion nematode) were mixed stage populations.

In data set [1] the test system is C. elegans. The data set is described as follows: Nematicidal activity of single fatty acid methyl ester emulsions against Caenorhabditis elegans (Example 4). In kind it is cell-based. The method, then: Mixed stage Caenorhabditis elegans were washed off plates seeded with OP50 bacteria using M9 solution. 250 μl of the M9 solution, which contained about 50 worms, was pipetted into each well of a 24-well plate.
(§3) Fatty acid methyl ester emulsions were prepared following the teachings of Kim et al (U.S. Pat. No. 5,698,592). Briefly, 1 ml 1% stock solution emulsions were prepared by mixing 10 μl of fatty acid methyl ester with 20 μl of the surfactant Igepal CO 630 in a 1.5 ml eppendorf tube. After careful mixing of fatty acid and Igepal CO 630, 850 μl of ddH20 was added and mixed by gentle pipetting until a homogeneous solution was obtained. Finally, 120 μl of pure isopropanol was added and mixed by gentle pipetting. This stock solution was then used to produce various fatty acid methyl ester dilution emulsions in 24-well plate assays.
To each well, fatty acid emulsions or control emulsions were added and rapidly mixed by swirling. Nematode viability was scored by visual observation and motility assays at various time points 24 hours following addition of emulsions or controls. The fatty acid emulsions tested were methyl esters of nonanoic (pelargonic) acid, ricinoleic acid, vernolic acid, linoleic acid, oleic acid, and control emulsions lacking fatty acids.

In another data set the test system is M. incognita. Briefly: Nematicidal activity of fatty acid methyl ester emulsions against root knot nematode J2 larvae (Example 6). Format: cell-based, Meloidogyne incognita. Conditions: 0.1% emulsion; 48 hours incubation, counted about 24 hours after transfer to plates. The method, then:
as §3
(§4) Meloidogyne incognita and javanica were prepared from tomato roots. The roots were bleached and the debris was separated from the J2 larvae and eggs by filtration followed by sucrose density gradient centrifugation. Eggs were hatched over 4 days at 15° C. and the J2 larvae were collected by passage though a filter, followed by centrifugation.
(§5) Nematodes and emulsions were incubated with shaking at room temperature for 48 hours. The contents of each well were transferred to a small spot on individual NGM plates lacking bacteria. About 24 hours after the transfer to plates, worms on and off the inoculation spot were counted as not viable or viable, respectively. Worms were considered viable if they had crawled away from the inoculation spot, or if they were moving. Worms were considered non-viable if they remained at the inoculation spot.

A further data set relates to B. malayi. Briefly: Nematicidal activity of tween-based emulsions against microfilarial nematodes. In kind it is cell-based, Brugia malayi. The method, then: To each well, tween-based fatty acid emulsions were added and rapidly mixed by swirling. Nematode microfilaria viability was scored by visual observation of motility at 24 and 48 hours following addition of emulsions. The fatty acid emulsions tested were methyl esters of ricinoleic acid, vernolic acid, ricinelaidic acid, oleic acid, and control emulsions lacking fatty acids. The results of this study are presented in Table 7 as the percentage of non-motile microfilaria 24 hours after inoculation and in Table 8 as the percentage of non-motile microfilaria 48 hours after inoculation

A further data set deals with tomato seedlings. The data set is described as follows: Phytotoxicity evaluation on tomato seedlings. In kind it is in vivo. Conditions: 250 μl of 1% emulsion applied to stem-media interface of two-week seedlings. The procedure: Sterilized tomato seeds were germinated in magenta jars containing Gamborg's agar media. After two weeks of growth, seedlings were treated with 250 μl of 1% fatty acid methyl ester emulsion (nonanoic acid, ricinoleic acid, ricinelaidic acid, oleic acid, or a control emulsion lacking any fatty acid), applied directly to the stem-media interface. Tomato seedlings were scored at various times after application of emulsions.

The subject of another data set is M. javanica. Briefly: Nematicidal activity of fatty acid methyl ester emulsions against root knot nematode J2 larvae (Example 6). Format: cell-based, Meloidogyne javanica. The following applies: 0.1% emulsion; 48 hours incubation, counted about 24 hours after transfer to plates. The procedure:
as §3, §4, §5

In a further data set the test system is H. glycines. Briefly: Nematicidal activity of fatty acid methyl ester emulsions, spectrum (Example 8). Format: cell-based, Heterodera glycines. The following applies: H. glycines 2nd stage juveniles, scored at 48 hours. The procedure: as §1, §2
The test system of the next data set is P. trichosuri. Described as above. In kind it is cell-based, Parastrongyloides trichosuri. The following applies: P. trichosuri infective 3rd stage larva. The method, then: as §1, §2
Data set [2] relates to C. elegans. Briefly: Rescue of C. elegans delta-12 FAT RNAi feeding phenotype by fatty acid methyl esters. In kind it is cell-based, Caenorhabditis elegans. The following applies: 3 mM added to the NGM media. The text has this:
RNAi by feeding: C. elegans can be grown on lawns of E. coli genetically engineered to produce double stranded RNA (dsRNA) designed to inhibit delta-12 fat-2 expression. Briefly, E. coli were transformed with a genomic fragment of a portion of the C. elegans fat-2 gene sequence, specifically a fragment 651 nucleotides long, containing the entire first exon and terminating just before the conserved intron splice junction between the first exon and first intron. This construct encodes approximately the first 217 amino acids of the C. elegans delta-12 FAT gene. The 651 nucleotide genomic fragment was cloned into an E. coli expression vector between opposing T7 polymerase promoters. The clone was then transformed into a strain of E. coli that carries an IPTG-inducible T7 polymerase. As a control, E. coli was transformed with a gene encoding the Green Fluorescent Protein (GFP). Feeding RNAi was initiated from C. elegans eggs or from C. elegans […]. […] When feeding RNAi was started from C. elegans L4 larvae at 23° C. on NGM plates containing IPTG and E. coli expressing the C. elegans […] […] The sequence of the fat-2 gene is of sufficiently high complexity (i.e., unique) such that the RNAi is not likely to represent cross reactivity with other genes. […]

In data set [3] the test system is C. elegans. The data set is described as follows: Nematicidal activity of fatty acid methyl ester emulsions, spectrum (Example 8). Format: cell-based, Caenorhabditis elegans. Conditions: C. elegans mixed stage. The method, then: as §1, §2
For data set [4], the system named is isolated intestinal epithelial cells. Conditions: Gaginella et al. (1977); cited from earlier work.
In data set [5] the test system is everted hamster jejunal and ileal segments. The following applies: Gaginella et al. (1975); cited from earlier work.

As to `CCCCCCCC/C=C\CCCCCCCC(=O)OC` [Oleic Acid (C18-methyl ester), oleic acid methyl ester, reference compound], the “% Worm Death (24 hr)” value was <20% in the data set with P. scribneri (0.01% solution); <20% in the data set with P. scribneri (0.1% solution); <10% in the data set with H. glycines (0.001% solution); <10% with H. glycines (0.01% solution); <10% in the data set with H. glycines (0.1% solution); “˜10%” in the data set on P. trichosuri (0.01% solution). Moreover, the “% Worm Death (24 hr)” value in the data set on P. trichosuri (0.1% solution) is listed as “˜10%”; in the data set with C. elegans [3] (0.01% solution), <10%; in the data set with C. elegans [3] (0.1% solution), <10%. Besides, the “Percentage of Worm Death” value in the data set on C. elegans [1] (0.003% emulsion, 1 hr) is given as 0-5%; in the data set with C. elegans [1] (0.003% emulsion, 6 hr), 0-5%; in the data set on C. elegans [1] (0.003% emulsion, 24 hr), 0-5%; in the data set with C. elegans [1] (0.1% emulsion, 1 hr), 0-5%; in the data set with C. elegans [1] (0.1% emulsion, 6 hr), 0-5%; with C. elegans [1] (0.1% emulsion, 24 hr), 0-5%. In addition, in the data set with M. incognita, the “M. incognita (% not viable)” value is on record as 25%. The “percentage of non-motile microfilaria” value in the data set with B. malayi (24 hrs post-inoculation, 0.0008%) was 0%; with B. malayi (24 hrs post-inoculation, 0.0016%), 0%; with B. malayi (24 hrs post-inoculation, 0.003%) it was 0%; with B. malayi (24 hrs post-inoculation, 0.005%), 0%; in the data set on B. malayi (24 hrs post-inoculation, 0.0067%) it was 0%; in the data set on B. malayi (24 hrs post-inoculation, 0.008%) it was 0%. In addition, the “percentage of non-motile microfilaria” value came out at 0% in the data set with B. malayi (48 hrs post-inoculation, 0.0008%); 0% in the data set with B. malayi (48 hrs post-inoculation, 0.0016%); 0% in the data set on B. malayi (48 hrs post-inoculation, 0.003%); 0% in the data set with B. malayi (48 hrs post-inoculation, 0.005%); 0% in the data set with B. malayi (48 hrs post-inoculation, 0.0067%); 0% with B. malayi (48 hrs post-inoculation, 0.008%). Moreover, the “Visible effects on tomato seedlings” value in the data set with tomato seedlings is on record as “none of the tomatoes treated with the other fatty acid methyl ester emulsions showed visible effects”. Moreover, the “M. javanica (% not viable)” value with M. javanica is given as 20%. For the same compound, the “Rescue of the delta-12 FAT RNAi feeding phenotype” value in the data set on C. elegans [2] was “does not rescue”.

Take `CCCCCC[C@@H](O)C/C=C\CCCCCCCC(=O)O` [Ricinoleic acid, reference compound]: the Cytotoxicity entry in data set [4] is given as “cytotoxic”. Also, the “Effect on water (and electrolyte) absorption” value in data set [5] was “inhibitory effect on water and electrolyte absorption”.
